Laboratory results: US20130123287A1, “CONTROL AGENT FOR SOFT ROT AND CONTROL METHOD FOR THE SAME” (ISHIHARA SANGYO KAISHA, LTD., priority 2010, published 2013)

What was measured:
[1] = tested on: soft rot of Chinese cabbage; assay: Test for controlling soft rot of Chinese cabbage, Example 3 / Comparative Example 3 (field, cultivar Muso); type: in vivo; settings: 500 g ai/10 a, 150 L/10 a sprayed onto planting holes before planting, 51 days after start
Description: (§1) Frequency of the disease=[sigma(number of plants with the onset of the disease at each severity level*index of the onset of the disease)/(plants examined*4)]*100
(§2) Disease control value=[1-(frequency of the disease in the treated lot/frequency of the disease in the non-treated lot)]*100
(§3) • 0: No onset • 1: Onset in some of outer leaves (shippable) • 2: Onset in outer leaves and some of head leaves (by removing damaged parts, the resulting cabbage can be shipped as small cabbage but is ranked as grade B). • 3: Most of head leaves are inflicted with the onset of the disease or with severer damages (not shippable) • 4: Whole cabbage plant is inflicted with the onset of the disease and is dead.
442 g/l kresoxim-methyl (STROBY FLOWABLE [trade name], manufactured by BASF) was adjusted to 500 g ai/10a (0.5 g/m^2, 1131 ml Product/10a) as the amount of the active ingredient and to 150 L/10a as the volume of diluent water. […]
(§4) 51 days after the start of the tests, all the plants in each lot were examined about the severity level of the disease to assess the frequency of the disease and the disease control value. The frequency of the disease and the disease control value were determined in the same manner as described above. Because soft rot is a disease with damages hardly controlled, herein, even a chemical at the level C determined by the tests of the effects can practically be used.

[2] = tested on: bacteria causing the soft rot (Erwinia carotovora); assay: Inhibition test of growth of bacteria causing soft rot, Reference Test Example 6; type: cell-based; settings: for formed colonies (growth state), grade: PSA medium, 27 degrees Celsius, 3 days
Description: (§5) An inhibition test of the growth of bacteria causing the soft rot was done, when a control agent was directly applied to the bacteria causing the soft rot. A given volume of each pesticide of fludioxonil (Seibia FL [trade name] manufactured by Syngenta Japan K.K.), iminoctadine albesilate salt (Bellkute WP [trade name], manufactured by Nippon Soda Co., Ltd.), iprodione (Rovral WP [trade name] manufactured by Bayer Crop Science Co., Ltd.), and streptomycin (Mycin Wettable powder [trade name] manufactured by Hokko Chemical Industry Co., Ltd.) was added together with a suspension of the bacteria causing the soft rot (Erwinia carotovora) to a preliminarily dissolved PSA culture medium (55 degrees Celsius) for subsequent thorough agitation, which was then spread on a plate for culturing at 27 degrees Celsius for 3 days, to examine the growth state. Subsequently, the formed colonies were examined according to the following three grades. • +: at the same level as the level of non-treated lot.
(§6) Plus or minus: apparently less than the colonies of the non-treated lot. • −: almost no colonies observed.

[3] = tested on: soft rot of Chinese cabbage; assay: Test for controlling soft rot of Chinese cabbage, Example 2 / Comparative Example 2 (field, cultivar Harebutai 65); type: in vivo; settings: 500 g ai/10 a, 150 L/10 a sprayed onto planting holes before planting, 64 days after start
Description: as §1, §2, §3
200 g/l Azoxystrobin (Amistar 20 FLOWABLE [trade name], manufactured by Syngenta Japan K.K.) was adjusted to 500 g ai/10a (0.5 g/m^2, 2500 ml Product/10a) as the amount of the active ingredient and to 150 L/10a as the volume of diluent water.
30% w/w triflumizol (TRIFUMIN WP [trade name], manufactured by Nippon Soda Co., Ltd.) was adjusted to 500 g ai/10a (0.5 g/m^2, 1667 g Product/10a) as the amount of the active ingredient and to 150 L/10a as the volume of diluent water.
100 g/1 cyazofamid (RANMAN PLOWABLE [trade name], manufactured by Ishihara Sangyo Kaisha, Ltd.) was adjusted to 500 g ai/10a (0.5 g/m^2, 5000 ml Product/10a) as the amount of the active ingredient and to 150 L/10a as the volume of diluent water.
50% w/w penthiopyrad (GAIA WG [trade name], manufactured by Mitsui Chemicals Agro, Inc.) was adjusted to 500 g ai/10a (0.5 g/m^2, 1000 g Product/10a) as the amount of the active ingredient and to 150 L/10a as the volume of diluent water.
50 g/l flusulfamide (SCABLOCK SC [trade name], manufactured by Mitsui Chemicals Agro, Inc.) was adjusted to 500 g ai/10a (0.5 g/m^2, 10000 ml Product/10a) as the amount of the active ingredient and to 150 L/10a as the volume of diluent water.
400 g/1 chlorothalonil (Daconil 1000 [the trade name], manufactured by Sumitomo Chemical, Limited) was adjusted to 1000 g ai/10a (1.0 g/m^2, 2500 ml Product/10a) as the amount of the active ingredient and to 150 L/10a as the volume of diluent water.
(§7) After spreading an agricultural mulch-sheet and opening planting holes (diameter of about 5 cm) for permanent planting through the mulch-sheet, the spray solutions prepared as described above were sprayed onto the planting holes such that the amount of treated active ingredient of chlorothalonil was 1.0 g/m^2 (150 L per 10a) and the amount of each of the remaining spray solutions was 0.5 g/m^2 (150 L per 10a), followed by air-drying; subsequently, seedlings of Chinese cabbage (cultivar Harebutai 65) grown for 4 weeks in cell mold trays (128 holes/nursery box) were planted such that 19 seedlings were planted in each test lot having an area of 2.4 m^2 with two replications.
(§8) Preparation was performed by diluting streptomycin (Mycin 20 wettable powder solution [under the trade name] manufactured by Hokko Chemical Industry Co., Ltd.) with water to 1/1000.
(§9) In a field spread with the agricultural mulch-sheet, Chinese cabbage seedlings (cultivar: Harebutai 65) grown by the same method as in Example 2 were planted by the same method as in Example 2, for spraying the spray solution of streptomycin prepared above in (1) (at each spray volume of 300 L/10a) twice (27 days and 48 days after the planting of the seedlings) on the stems and leaves with a sprayer.
as §4, with “64” for “51”, “In the same manner as described above, the” for “The”, “determined. Additionally,” for “determined in the same manner as described above. Because”, “so” for “herein,”

[4] = tested on: soft rot of Chinese cabbage; assay: Test for controlling soft rot of Chinese cabbage, Example 1 / Comparative Example 1 (field, cultivar Muso); type: in vivo; settings: 250 g ai/10 a, 150 L/10 a sprayed onto planting holes before planting, 54 days after start
Experimental: 200 g/l Azoxystrobin (Amistar 20 FLOWABLE [trade name], manufactured by Syngenta Japan K.K.) was adjusted to 250 g ai/10a (0.25 g/m^2, 1250 ml Product/10a) as the amount of the active ingredient and to 150 L/10a as the volume of diluent water.
100 g/l Cyazofamid (RANMAN FLOWABLE [trade name], manufactured by Ishihara Sangyo Kaisha, Ltd.) was adjusted to 250 g ai/10a (0.25 g/m^2, 2500 ml Product/10a) as the amount of the active ingredient and to 150 L/10a as the volume of diluent water.
177 g/l Amisulbrom (LEIMAY FLOWABLE [trade name], manufactured by Nissan Chemical Industries, Ltd.) was adjusted individually to 250 g ai/10a (0.25 g/m^2, 1412 ml Product/10a) as the amount of the active ingredient and to 150 L/10a as the volume of diluent water.
as §7, with “about 9” for “about 5”, “of each spray solution” for “of chlorothalonil”, “was 0.25” for “was 1.0 g/m^2 (150 L per 10a) and the amount of each of the remaining spray solutions was 0.5”, “cabbage (cultivar: Muso)” for “cabbage (cultivar Harebutai 65)”, “that 30” for “that 19”, “of 6” for “of 2.4”
as §8
as §9, with “Muso)” for “Harebutai 65)”, “1” for “2”, “1,” for “2,”, “three times (13 days, 20” for “twice (27”, “27” for “48”, “leaves.” for “leaves with a sprayer.”
54 days after the start of the tests, all the plants in each lot were examined about the severity level of the disease; according to the following equations, the ratio of the plants with the onset of the disease, the frequency of the disease, and the disease control value were calculated to determine and rank the effects at A to D levels. Because soft rot is a disease with damages hardly controlled, herein, even a chemical at the level C determined by the tests of the effects can practically be used.
Ratio of the plants with the onset of the disease=(Number of plants with the onset of the disease/number of plants examined)*100
Frequency of the disease=[sigma(number of plants with the onset of the disease at each severity level*index of the onset of the disease)/(plants examined*4)]*100 […]

[5] = tested on: bacteria causing the soft rot (Erwinia carotovora); assay: Inhibition test of growth of bacteria causing soft rot, Reference Test Example 1; type: cell-based; settings: for formed colonies (growth state), grade: PSA medium, 25 degrees Celsius, 4 days
Experimental: as §5, with “cyazofamid (RANMAN 400SC” for “fludioxonil (Seibia FL”, “Ishihara Sangyo Kaisha, Ltd.), amisulbrom (LEIMAY FLOWABLE” for “Syngenta Japan K.K.), iminoctadine albesilate salt (Bellkute WP”, “Nissan Chemical Industries, Ltd.)” for “Nippon Soda Co., Ltd.), iprodione (Rovral WP [trade name] manufactured by Bayer Crop Science Co., Ltd.),”, “25” for “27”, “4” for “3”
as §6

[6] = active ingredient concentration of 1,000 ppm

Compound	Determination of effect [1]	formed colonies (growth state), grade ([2]; 100 ppm active ingredient)	formed colonies (growth state), grade ([2]; 500 ppm active ingredient)	formed colonies (growth state), grade ([2]; 1000 ppm active ingredient)	inhibition of growth of Erwinia carotovora (in words) [2, 6]	Determination of effect [3]	Determination of effect [4]	formed colonies (growth state), grade ([5]; 100 ppm active ingredient)	formed colonies (growth state), grade ([5]; 500 ppm active ingredient)	formed colonies (growth state), grade ([5]; 1000 ppm active ingredient)	inhibition of growth of Erwinia carotovora (in words) [5, 6]
1,1′-iminodi(octamethylene)diguanidinium=tris(alkylbenzenesulfonate) [Iminoctadine albesilate salt]	B (B: Effective (41 to 60 disease control value))	+, +	+, +	+, +	never inhibited the growth						
Cc1ccc(-c2c(Cl)nc(C#N)n2S(=O)(=O)N(C)C)cc1 [Cyazofamid, 4-chloro-2-cyano-N,N-dimethyl-5-p-tolylimidazole-1-sulfoneamide]						C (C: Effective at low level (21 to 40 disease control value))	D (D: Poorly effective (20 or smaller disease control value))	+, +	+, +	+, +	never inhibited the growth
